This passage reports IC50 results from patent US20240336596A1, “PARP7 INHIBITOR AND USE THEREOF” (NOVOSTAR PHARMACEUTICALS, LTD., priority 2022, published 2024).

Each structure is given as a SMILES string.

By IC50 is commonly meant the concentration that gives 50% inhibition.

The target in assay [1] is T1, recombinant human PARP7 protein (Homo sapiens, UniProt Q7Z3E1).
T1 construct: purchased Abcam ab271651
T1 sequence (Q7Z3E1 1-657): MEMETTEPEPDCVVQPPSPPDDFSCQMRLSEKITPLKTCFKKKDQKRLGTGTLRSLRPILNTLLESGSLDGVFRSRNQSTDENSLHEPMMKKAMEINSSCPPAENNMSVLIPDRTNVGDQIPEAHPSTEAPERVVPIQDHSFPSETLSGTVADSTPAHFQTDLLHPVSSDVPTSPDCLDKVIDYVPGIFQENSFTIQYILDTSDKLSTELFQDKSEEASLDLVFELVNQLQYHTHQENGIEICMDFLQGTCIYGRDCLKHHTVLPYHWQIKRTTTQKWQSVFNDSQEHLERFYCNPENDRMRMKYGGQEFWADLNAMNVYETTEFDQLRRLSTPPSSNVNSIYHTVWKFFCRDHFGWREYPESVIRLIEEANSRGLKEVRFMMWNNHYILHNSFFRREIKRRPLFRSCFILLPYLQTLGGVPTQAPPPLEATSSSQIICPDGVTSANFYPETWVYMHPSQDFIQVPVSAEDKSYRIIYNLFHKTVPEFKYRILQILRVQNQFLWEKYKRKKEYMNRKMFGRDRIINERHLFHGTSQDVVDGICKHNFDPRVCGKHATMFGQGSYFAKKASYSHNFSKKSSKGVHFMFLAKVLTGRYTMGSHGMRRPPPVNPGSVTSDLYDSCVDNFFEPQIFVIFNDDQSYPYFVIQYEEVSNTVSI
Briefly: Inhibition of PARP7 biological enzyme activity (histone-coated plate, Biotin-NAD+, chemiluminescence). The assay is classed as biochemical. To be noted: recombinant human PARP7, Biotin-NAD+ substrate. As to the method:
The recombinant human PARP7 protein kit (Abcam, catalog number ab271651) was used for the assay. According to the kit instructions, 30 μL of histone coating solution (1.5 μg/mL) was first applied to the 384 well holes of the reaction plate and coated at 4° C. for 2 hours. Then, the histone coated solution was washed off, and 50 μL sealing buffer was added to each well, and the sealing buffer was washed off after incubation at 25° C. for 60 minutes. 1000 times the concentration of the compound was 10 configured and diluted from 1 mM to 0.05 μM, and the configured compound was transferred to 384-well plates with 25 nL per well using Echo. The final concentration of the compound in the reaction system was 1000 nM, 333.33 nM, 111.11 nM, 37.03 nM, 12.34 nM, 4.11 nM, 1.37 nM, 0.45 nM, 0.15 nM, 0.05 nM, which was used as the test hole. At the same time, 25 nL DMSO was added to the negative control well and the positive control well. The PARP7 enzyme solution with a concentration of 1.67 times was prepared, and the PARP7 enzyme solution was added to the test hole and the positive control hole with 15 μL each, while the negative control hole was added with 15 μL base Buffer, and incubated at 25° C. for 15 minutes. Then 10 μL 2.5 times Biotin-NAD+ substrate solution was added and incubated at 25° C. for 60 min. After the reaction solution was washed off, the 384-well reaction plates were treated with closed buffer solution diluted with streptavidin-HRP (1:500), each well was 30 μL, and incubated at 25° C. for 30 min. After the HRP buffer was washed off, 30 μL HRP chemiluminescent substrate mixture was added to each well, and the luminescence signal (RLU) of each well was detected by Envision. Calculation formula: Inhibition rate %=(average positive control-RLU compound)/(average positive control-average negative control))*100%. The dose-response curves of each compound were fitted by GraphPad Prism 8 to get IC50 values. IC50 values less than 0.01 μM are labeled as “+++”, IC50 values from 0.01 to 0.1 µM are labeled as “++”, and IC50 values greater than 0.1 to 10.0 μM are labeled as “+”.

For assay [2], the system named is NCI-H1373 cancer cells. Briefly: NCI-H1373 cancer cell growth inhibition (CellTiter-Glo, 144 hours). The assay is classed as cell-based. To be noted: Homo sapiens, 144 hours culture. As to the method: Promega CellTiter-Glo cell activity assay kit (Item No.: Promege-G7573) was used to determine the cell activity. 90 μL NCI-H1373 cell suspension (ATCC, catalog No. CRL-5866, batch No. 58078716) was spread into the pores of the 96-well plate with 3500 cells per well. After 24 hours, the 10 μL prepared 10× compound working solution was added into the pores of the cell culture plate with a final concentration of 10 μM. 3.3333 μM, 1.1111 μM, 0.3704 μM, 0.1235 μM, 0.0412 μM, 0.0137 μM, 0.0046 μM, 0.0015 μM, 0.0005 μM, 10 μL DMSO was added to the solvent control, and the final concentration of DMSO was 0.2%. The 0-day plates were collected for analysis, and after 144 hours of culture, the growth condition of cells was detected according to the instructions of CellTiter-Glo cell activity assay kit. Add 50 μL of CellTiter-Glo working liquid into each hole of the cell culture plate, shake the plates in the dark for 2 minutes until cell lysis, and place at room temperature for 10 minutes to detect the luminous signal (RUL) of each cell hole on the 2104En Vision board reader.
Calculation formula: Growth inhibition rate %=(1−(RLU compound−RLU Day0)/(RLU solvent control−RLU Day0))*100%. The dose-response curves of each compound were fitted by GraphPad Prism 8 to obtain IC50 values.
For the matter, IC50 values less than 0.1 μM are labeled “+++”, values from 0.1 to 1 μM are labeled “++”, and values greater than 1 to 10 μM are labeled “+”.
(In general: ATP-based viability assays read luminescence as a measure of living cells.)

In the case of `C[C@@H](CNOCC(=O)N1CCN(c2ncc(C(F)(F)F)cn2)CC1)Nc1cn[nH]c(=O)c1C(F)(F)F` [Example 1, (S)-5-((1-((2-oxo-2-(4-(5-(trifluoromethyl)pyrimidin-2-yl)piperazin-1-yl)ethoxy)amino)propan-2-yl)amino)-4-(trifluoromethyl)pyridazin-3(2H)-one], the concentration for half-maximal inhibition (IC50) in assay [1] was under 10 nM.

With `C[C@@H](CN(C)OCC(=O)N1CCN(c2ncc(C(F)(F)F)cn2)CC1)Nc1cn[nH]c(=O)c1C(F)(F)F` [Example 2, (S)-5-((1-(methyl(2-oxo-2-(4-(5-(trifluoromethyl)pyrimidin-2-yl)piperazin-1-yl)ethoxy)amino)propan-2-yl)amino)-4-(trifluoromethyl)pyridazin-3(2H)-one], in assay [1], the IC50 was under 10 nM.

For `CCN(C[C@H](C)Nc1cn[nH]c(=O)c1C(F)(F)F)OCC(=O)N1CCN(c2ncc(C(F)(F)F)cn2)CC1` [Example 3, (S)-5-((1-(ethyl(2-oxo-2-(4-(5-(trifluoromethyl)pyrimidin-2-yl)piperazin-1-yl)ethoxy)amino)propan-2-yl)amino)-4-(trifluoromethyl)pyridazin-3(2H)-one], the half-inhibitory concentration (IC50) in assay [1] was in the range of 10 to 100 nM.

As for `C[C@@H](CN(C)OCC(=O)N1CCN(c2ncc(C#N)cn2)CC1)Nc1cn[nH]c(=O)c1C(F)(F)F` [Example 4, (S)-2-(4-(2-((methyl(2-((6-oxo-5-(trifluoromethyl)-1,6-dihydropyridazin-4-yl)amino)propyl)amino)oxy)acetyl)piperazin-1-yl)pyrimidine-5-carbonitrile], in assay [1], the half-inhibitory concentration (IC50) lay within 10 to 100 nM.

Regarding `C[C@@H](CONC(=O)C=C1CCN(c2ncc(C(F)(F)F)cn2)CC1)Nc1cn[nH]c(=O)c1C(F)(F)F` [Example 20, (S)—N-(2-((6-oxo-5-(trifluoromethyl)-1,6-dihydropyridazin-4-yl)amino)propoxy)-2-(1-(5-(trifluoromethyl)pyrimidin-2-yl)piperidin-4-ylidene)acetamide], the IC50 in assay [2] lay within 1000 to 10000 nM.

In turn, `CC1=C(CC(=O)NOC[C@H](C)Nc2cn[nH]c(=O)c2C(F)(F)F)CCN(c2ncc(C3CC3)cn2)C1` [Example 31, (S)-2-(1-(5-cyclopropylpyrimidin-2-yl)-5-methyl-1,2,3,6-tetrahydropyridin-4-yl)-N-(2-((6-oxo-5-(trifluoromethyl)-1,6-dihydropyridazin-4-yl)amino)propoxy)acetamide] gave a half-maximal inhibitory concentration (IC50) in assay [2] of 100 to 1000 nM.

Regarding `C[C@@H](CONC(=O)CC1CCN(c2ccc(C(F)(F)F)cn2)CC1)Nc1cn[nH]c(=O)c1C(F)(F)F` [Example 32, (S)—N-(2-((6-oxo-5-(trifluoromethyl)-1,6-dihydropyridazin-4-yl)amino)propoxy)-2-(1-(5-(trifluoromethyl)pyridin-2-yl)piperidin-4-yl)acetamide], in assay [2], the IC50 was 100 to 1000 nM.

The molecule `C[C@@H](CONC(=O)CC1CCN(c2ccc(C#N)cn2)CC1)Nc1cn[nH]c(=O)c1C(F)(F)F` [Example 34, (S)-2-(1-(5-cyanopyridin-2-yl)piperidin-4-yl)-N-(2-((6-oxo-5-(trifluoromethyl)-1,6-dihydropyridazin-4-yl)amino)propoxy)acetamide] came in with an IC50 in assay [2] of 100 to 1000 nM.

Molecule `C[C@@H](CONC(=O)CC1CCN(c2ncc3c(n2)CCC3=O)CC1)Nc1cn[nH]c(=O)c1C(F)(F)F` [Example 42, (S)—N-(2-((6-oxo-5-(trifluoromethyl)-1,6-dihydropyridazin-4-yl)amino)propoxy)-2-(1-(5-oxo-6,7-dihydro-5H-cyclopenta(d)pyrimidin-2-yl)piperidin-4-yl)acetamide] returned an IC50 in assay [2] of 1000 to 10000 nM.

Molecule `C[C@@H](CON(C)C(=O)CC1CCN(c2ncc(C(F)(F)F)cn2)CC1)Nc1cn[nH]c(=O)c1C(F)(F)F` [Example 45, (S)—N-methyl-N-(2-((6-oxo-5-(trifluoromethyl)-1,6-dihydropyridazin-4-yl)amino)propoxy)-2-(1-(5-(trifluoromethyl)pyrimidin-2-yl)piperidin-4-yl)acetamide] displayed a concentration for half-maximal inhibition (IC50) in assay [2] of 1000 to 10000 nM.

Take `C[C@@H](CONS(=O)(=O)CC1CCN(c2ncc(C(F)(F)F)cn2)CC1)Nc1cn[nH]c(=O)c1C(F)(F)F` [Example 47, (S)—N-(2-((6-oxo-5-(trifluoromethyl)-1,6-dihydropyridazin-4-yl)amino)propoxy)-1-(1-(5-(trifluoromethyl)pyrimidin-2-yl)piperidin-4-yl)methanesulfonamide]: in assay [2], the IC50 lay in the range of 1000 to 10000 nM.

As to `C[C@@H](CONC(=O)C1(C2CCN(c3ncc(C(F)(F)F)cn3)CC2)CC1)Nc1cn[nH]c(=O)c1C(F)(F)F` [Example 50, (S)—N-(2-((6-oxo-5-(trifluoromethyl)-1,6-dihydropyridazin-4-yl)amino)propoxy)-1-(1-(5-(trifluoromethyl)pyrimidin-2-yl)piperidin-4-yl)cyclopropanecarboxamide], the 50% inhibitory concentration (IC50) in assay [2] fell in the range of 1000 to 10000 nM.

For `CC1CN(c2ncc(C(F)(F)F)cn2)CCC1CC(=O)NOC[C@H](C)Nc1cn[nH]c(=O)c1C(F)(F)F` (stereo partly drawn) [Example 52, 2-(3-methyl-1-(5-(trifluoromethyl)pyrimidin-2-yl)piperidin-4-yl)-N—((S)-2-((6-oxo-5-(trifluoromethyl)-1,6-dihydropyridazin-4-yl)amino)propoxy)acetamide], the IC50 in assay [2] is 1000 to 10000 nM.

As for `C[C@@H](CONC(=O)C[C@H]1CCN(c2ncc(C(F)(F)F)cn2)C[C@H]1O)Nc1cn[nH]c(=O)c1C(F)(F)F` [Example 54, 2-((3S,4R)-3-hydroxy-1-(5-(trifluoromethyl)pyrimidin-2-yl)piperidin-4-yl)-N—((S)-2-((6-oxo-5-(trifluoromethyl)-1,6-dihydropyridazin-4-yl)amino)propoxy)acetamide], the IC50 in assay [2] was in the range of 1000 to 10000 nM.

`C[C@@H](CONC(=O)C[C@H]1CCN(c2ncc(C(F)(F)F)cn2)C[C@@H]1O)Nc1cn[nH]c(=O)c1C(F)(F)F` [Example 55, 2-((3R,4R)-3-hydroxy-1-(5-(trifluoromethyl)pyrimidin-2-yl)piperidin-4-yl)-N—((S)-2-((6-oxo-5-(trifluoromethyl)-1,6-dihydropyridazin-4-yl)amino)propoxy)acetamide] registered a concentration for half-maximal inhibition (IC50) in assay [2] of 1000 to 10000 nM.

In the case of `C[C@@H](CONC(=O)CN1CCC2(CCN(c3ncc(C(F)(F)F)cn3)CC2)C1)Nc1cn[nH]c(=O)c1C(F)(F)F` [Example 56, (S)—N-(2-((6-oxo-5-(trifluoromethyl)-1,6-dihydropyridazin-4-yl)amino)propoxy)-2-(8-(5-(trifluoromethyl)pyrimidin-2-yl)-2,8-diazaspiro(4.5)decan-2-yl)acetamide], in assay [2], the IC50 lay in the range of 1000 to 10000 nM.

`C[C@@H](CONC(=O)CC1CCN(c2ncc3c(n2)CC[C@@]3(C)O)CC1)Nc1cn[nH]c(=O)c1C(F)(F)F` [Example 61]: the IC50 in assay [2] lay in the range of 1000 to 10000 nM.

`[2H]C(C(=O)NOC[C@H](C)Nc1cn[nH]c(=O)c1C(F)(F)F)C1=CCN(c2ncc(C(F)(F)F)cn2)CC1` (stereo partly drawn) [Example 62] came in with an IC50 in assay [2] of 1000 to 10000 nM.
